Source: patent US8653046B2, “Controlling transgene expression across the skin” (ETH Zurich, priority 2009, dated 2014)

Assays:
TtgA1 (TtgR-VP16) [1] = molecular target: T1, TtgA1 (TtgR-VP16) (Pseudomonas putida, UniProt Q9AIU0); assay: Compatibility test: phloretin-responsive SEAP production of CHO-PEACE8; type: cell-based, Pseudomonas putida DOT-T1E; design: expressed in transfected cells; host or cells: CHO-K1 (transient pMG11 or pMG13); also HEK-293, BHK-21, COS-7, HaCaT, HT-1080, NIH/3T3, primary human fibroblasts and keratinocytes; conditions: Phl 50 μM, 48 h, 100 = no inducer
T1 sequence (Q9AIU0 whole entry, added parts left off): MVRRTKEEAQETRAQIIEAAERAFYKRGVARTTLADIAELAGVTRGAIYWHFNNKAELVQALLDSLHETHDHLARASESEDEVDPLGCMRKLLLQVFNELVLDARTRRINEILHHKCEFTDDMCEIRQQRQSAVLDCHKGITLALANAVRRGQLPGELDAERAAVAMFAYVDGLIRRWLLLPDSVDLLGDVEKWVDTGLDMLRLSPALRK
Source text: To evaluate the functional compatibility of PEACE with the established tetracycline— [TETOFF; Gossen M., Bujard H., 1992, Proc Natl Acad Sci USA 89(12):5547-5551] and macrolide— [EOFF; Weber W., et al., 2002, Nat Biotechnol 20(9):901-907] responsive expression circuits CHO-PEACE8 is transiently transfected, transgenic for phloretin-responsive SEAP expression, with either the TETOFF-(pSAM200, PSV40-tTA-pA; pBP99, PhCMV*-1-SAMY-pA) or the EOFF-(PWW35, PSV40-ET1-pA; pBP100, PETR3-SAMY-pA) system set to control the Bacillus stearothermophilus-derived secreted α-amylase (SAMY) in response to tetracycline and erythromycin, respectively. SEAP and SAMY expression are scored 48 h after cultivation of the transfected populations in the presence (50 μM; 2 μg/mL) or absence of the inducer molecules (phloretin, tetracycline, erythromycin).
The stable CHO-PEACE8 cell line, transgenic for phloretin-controlled SEAP expression, is constructed in two steps: (i) CHO-K1 cells are co-transfected with pMG11 (PSV40-TtgA1-pA) and pSV2neo (Clontech, Cat. No. 6172-1) at a ratio of 20:1 and clonal selection results in the cell line CHO-TtgA. (ii) CHO-TtgA is co-transfected with pMG10 (PTtgR1-SEAP-pA) and pPur (Clontech, Cat. No. 6156-1) (ratio of 20:1) and the phloretin-responsive SEAP-producing double-transgenic cell line CHO-PEACE8 is chosen after clonal selection. […] Reversibility of phloretin-mediated SEAP production is assessed by cultivating CHO-PEACE8 (100,000 cells/mL) for 144 h while alternating phloretin concentrations from 0 to 50 μM every 48 h.

TtgA1 (TtgR-VP16) [2] = molecular target: T1, TtgA1 (TtgR-VP16); assay: Time-delayed induction of SEAP production of CHO-PEACE8 in bioreactor; type: cell-based; design: expressed in transfected cells; host or cells: CHO-K1 (transient pMG11 or pMG13); also HEK-293, BHK-21, COS-7, HaCaT, HT-1080, NIH/3T3, primary human fibroblasts and keratinocytes; conditions: 1 L bioreactor, start doses 60, 80 or 100 μM phloretin
Experimental: 2×10^3 cells/mL CHO-PEACE8 are cultivated in a bioreactor containing 1 L culture medium supplemented with either 60, 80 or 100 μM phloretin and SEAP production is profiled for 211 h. Owing to a defined phloretin degradation profile in culture and a precise induction threshold of 40 μM phloretin, the onset of SEAP production can be programmed to occur at a very precise point in time by defining the cell density and the phloretin concentration at production start.
Since phloretin is a non-toxic fruit component, it is an ideal product gene inducer for biopharmaceutical manufacturing scenarios, which require precise timing or dosing of difficult-to-express protein pharmaceuticals. Also, since phloretin has a determined half-live of 70 h in mammalian cell culture systems any production culture can be programmed to start product gene expression at a predefined point in time as phloretin concentrations drop below a repressing threshold level. A 1 L BioWave® bioreactor is inoculated with 2×10^3 CHO-PEACE8 and different transgene-repressing phloretin doses of 60, 80 or 100 μM. While CHO-PEACE8 grows exponentially from the start of the bioprocess, SEAP production gradually increases once phloretin is degraded to non-repressive levels (40 μM; FIG. 8). […]

O=C(CCc1ccc(O)cc1)c1c(O)cc(O)cc1O [phloretin, 3-[4-hydroxyphenyl]-1-[2,4,6-trihydroxyphenyl]-1-propanone]
Relative SEAP Production (%) (TtgA1 (TtgR-VP16) [1]; CHO-PEACE8 transiently transfected with macrolide-responsive control system, EM 2 μg/mL): 2.0 ± 1.2%
Relative SEAP Production (%) (TtgA1 (TtgR-VP16) [1]; CHO-PEACE8 transiently transfected with tetracycline-responsive control system, Tet 2 μg/mL): 2.2 ± 0.2%
induction threshold (non-repressive phloretin level) for SEAP production (TtgA1 (TtgR-VP16) [2]): 40 µM
